Measurements from ChEMBL document CHEMBL3044883, “Synthesis, spectral, theoretical, and antimicrobial screening of some heterocyclic oximes” (2011).
Values after ≈ are worked out from the molar mass of the structure shown.

Assays:
Type in all cases: functional
Rhizopus = experiment: Antifungal activity against Rhizopus after 72 to 96 hr by two-fold serial dilution method
Aspergillus flavus = experiment: Antifungal activity against Aspergillus flavus after 72 to 96 hr by two-foldserial dilution method
Klebsiella pneumoniae = experiment: Antibacterial activity against Klebsiella pneumoniae after 24 hr by two fold serial dilution method
Escherichia coli = experiment: Antibacterial activity against Escherichia coli after 24 hr by two-fold serial dilution method
Staphylococcus aureus = experiment: Antibacterial activity against Staphylococcus aureus after 24 hr by two fold serial dilution method
Pseudomonas aeruginosa = experiment: Antibacterial activity against Pseudomonas aeruginosa after 24 hr by two-fold serial dilution method
Aspergillus niger = experiment: Antifungal activity against Aspergillus niger after 72 to 96 hr by two-foldserial dilution method

MIC (Rhizopus) [µg/mL] | MIC (Aspergillus flavus) [µg/mL] | MIC (Klebsiella pneumoniae) [µg/mL] | MIC (Escherichia coli) [µg/mL] | MIC (Staphylococcus aureus) [µg/mL] | MIC (Pseudomonas aeruginosa) [µg/mL] | MIC (Aspergillus niger) [µg/mL] | SMILES
50 (≈ 158 µM) | 12.5 (≈ 39.5 µM) | 25 (≈ 79 µM) | 25 (≈ 79 µM) | 50 (≈ 158 µM) | 50 (≈ 158 µM) | 12.5 (≈ 39.5 µM) | CC(C)C1/C(=N\O)CC(c2ccco2)N(C=O)C1c1ccco1 (centres undefined)
50 (≈ 137 µM) | 25 (≈ 68.6 µM) | 25 (≈ 68.6 µM) | 25 (≈ 68.6 µM) | 25 (≈ 68.6 µM) | 25 (≈ 68.6 µM) | 25 (≈ 68.6 µM) | O=CN1C(c2ccco2)C/C(=N/O)C(Cc2ccccc2)C1c1ccco1 (centres undefined)
25 (≈ 82.7 µM) | 50 (≈ 165 µM) | 50 (≈ 165 µM) | 50 (≈ 165 µM) | 100 (≈ 331 µM) | 100 (≈ 331 µM) | 25 (≈ 82.7 µM) | CCC1/C(=N\O)CC(c2ccco2)N(C=O)C1c1ccco1 (centres undefined)
50 (≈ 173 µM) | 50 (≈ 173 µM) | 100 (≈ 347 µM) | 50 (≈ 173 µM) | 100 (≈ 347 µM) | 100 (≈ 347 µM) | 25 (≈ 86.7 µM) | CC1/C(=N\O)CC(c2ccco2)N(C=O)C1c1ccco1 (centres undefined)

SMILES | MIC (Rhizopus) [µg/mL] | MIC (Aspergillus flavus) [µg/mL] | MIC (Klebsiella pneumoniae) [µg/mL] | MIC (Escherichia coli) [µg/mL] | MIC (Staphylococcus aureus) [µg/mL] | MIC (Pseudomonas aeruginosa) [µg/mL] | MIC (Aspergillus niger) [µg/mL]
C[C@@H]1[C@H](O)[C@@H](C)/C=C/C=C/C=C/C=C/C=C/C=C/C=C/[C@H](O[C@@H]2O[C@H](C)[C@@H](O)[C@H](N)[C@@H]2O)C[C@@H]2O[C@](O)(C[C@@H](O)C[C@@H](O)[C@H](O)CC[C@@H](O)C[C@@H](O)CC(=O)O[C@H]1C)C[C@H](O)[C@H]2C(=O)O [AMPHOTERICIN B] | 50 (≈ 54.1 µM) | 25 (≈ 27.1 µM) | – | – | – | – | 50 (≈ 54.1 µM)
O=C(O)c1cn(C2CC2)c2cc(N3CCNCC3)c(F)cc2c1=O [CIPROFLOXACIN] | – | – | – | 25 (≈ 75.4 µM) | 50 (≈ 151 µM) | 50 (≈ 151 µM) | –
